Among the data in patent US9073892B2, “Indazolyl triazol derivatives” (Merck Serono S.A., priority 2010, dated 2015) are IC50 values, retold here.

By IC50 is commonly meant the concentration that gives 50% inhibition.

This experiment concerns T1, IRAK1/4 human.
T1 construct: fused on or other part: His tag and TEV cleavage site at the N-terminus
In words: IRAK1/4 phosphorylation IC50 (enzymatic assay, table 2). To be noted: human IRAK1/4 phosphorylation. The experiment is classed as biochemical. The gist of the method:
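The IC50 values describe inhibition of His-TEV-tagged human IRAK-1 or IRAK-4. Each enzyme was incubated with ATP and compounds in DMSO at 20 µM to 1 nM for 2 or 3 hours, with STK1-biotin peptide included for IRAK-4.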
In the case of `OCc1ccc2[nH]nc(-c3cn(-c4ccc(CN5CCOCC5)cc4)nn3)c2c1` [Example 198], the IC50 was 100 to 1000 nM. To `O=c1ccc(-c2ccc(O)cc2)nn1Cc1ccc2[nH]nc(-c3cn(-c4ccc(CN5CCOCC5)cc4)nn3)c2c1` [Example 199] belongs 100 to 1000 nM; to `O=c1ccc(-c2cccc(O)c2)nn1Cc1ccc2[nH]nc(-c3cn(-c4ccc(CN5CCOCC5)cc4)nn3)c2c1` [Example 200], below 100 nM. As for `C=C(C)c1ccc2c(-c3cn(-c4ccc(C(=O)N5CCOCC5)cc4)nn3)n[nH]c2c1` [Example 201], the figure is 100 to 1000 nM; as for `COc1cc2[nH]nc(-c3cn(-c4ccc(C(=O)N5CCOCC5)cc4)nn3)c2cc1Br` [Example 202], 1000 to 5000 nM; as for `O=C(c1ccc(-n2cc(-c3n[nH]c4cc(-c5ccccc5)ccc34)nn2)cc1)N1CCOCC1` [Example 203], 1000 to 5000 nM. To `c1ccc2c(-c3cn(-c4ccc(CC5CCNCC5)cc4)nn3)n[nH]c2c1` [Example 205] belongs 100 to 1000 nM; to `CC(C)c1ccc2c(-c3cn(-c4ccc(C(=O)N5CCOCC5)cc4)nn3)n[nH]c2c1` [Example 206], 100 to 1000 nM.

With `O=C(c1ccc(-n2cc(-c3n[nH]c4cc(-c5ccc(CO)cc5)ccc34)nn2)cc1)N1CCOCC1` [Example 207], the IC50 lay within 1000 to 5000 nM.

Regarding `O=C(c1ccc(-n2cc(-c3n[nH]c4cc(Br)ccc34)nn2)cc1)N1CCOCC1` [Example 208], the IC50 is 100 to 1000 nM.

In turn, `Cn1cc(-c2ccc3c(-c4cn(-c5ccc(C(=O)N6CCOCC6)cc5)nn4)n[nH]c3c2)cn1` [Example 209] returned an IC50 of 1000 to 5000 nM. With `CN1CCC(c2ccc(-n3cc(-c4n[nH]c5ccccc45)nn3)cc2)CC1` [Example 211], the half-maximal inhibitory concentration (IC50) was in the range of 100 to 1000 nM. The compound `COC/C=C/c1ccc2c(-c3cn(-c4ccc(C(=O)N5CCOCC5)cc4)nn3)n[nH]c2c1` [Example 212] yielded an IC50 of 100 to 1000 nM.

On to `COCC#Cc1ccc2c(-c3cn(-c4ccc(C(=O)N5CCOCC5)cc4)nn3)n[nH]c2c1` [Example 213], for which the IC50 fell in the range of 1000 to 5000 nM. As for `O=C(c1ccc(-n2cc(-c3n[nH]c4cc(-c5ccncc5)ccc34)nn2)cc1)N1CCOCC1` [Example 214], the figure is 100 to 1000 nM; as for `O=C(c1ccc(-n2cc(-c3n[nH]c4cc(C#CCCO)ccc34)nn2)cc1)N1CCOCC1` [Example 215], 1000 to 5000 nM; as for `O=C(c1ccc(-n2cc(-c3n[nH]c4cc(CCCCO)ccc34)nn2)cc1)N1CCOCC1` [Example 216], 100 to 1000 nM. As for `O=C(c1ccc(-n2cc(-c3n[nH]c4cc(C5=CCOCC5)ccc34)nn2)cc1)N1CCOCC1` [Example 217], the figure is 100 to 1000 nM. To `CCC(O)CCc1ccc2c(-c3cn(-c4ccc(C(=O)N5CCOCC5)cc4)nn3)n[nH]c2c1` (centres unmarked) [Example 218] belongs 1000 to 5000 nM; to `NCC#Cc1ccc2c(-c3cn(-c4ccc(C(=O)N5CCOCC5)cc4)nn3)n[nH]c2c1` [Example 219], 1000 to 5000 nM. The compound `COCCCc1ccc2c(-c3cn(-c4ccc(C(=O)N5CCOCC5)cc4)nn3)n[nH]c2c1` [Example 220] had an IC50 of 100 to 1000 nM. As for `C#Cc1ccc2c(-c3cn(-c4ccc(C(=O)N5CCOCC5)cc4)nn3)n[nH]c2c1` [Example 221], the figure is 100 to 1000 nM. As for `O=C(c1ccc(-n2cc(-c3n[nH]c4ccc(NC5CCCOC5)cc34)nn2)cc1)N1CCOCC1` (centres unmarked) [Example 222], the figure is 100 to 1000 nM.

For the compound `CN1CCC(Nc2ccc3[nH]nc(-c4cn(-c5ccc(C(=O)N6CCOCC6)cc5)nn4)c3c2)CC1` [Example 223], the IC50 was below 100 nM.

`CN1C2CCC1CC(n1cc(-n3cc(-c4n[nH]c5ccc(F)cc45)nn3)cn1)C2` (centres unmarked) [Example 226] returned an IC50 of 100 to 1000 nM. Compound `CN1C2CCC1CC(n1cc(-n3cc(-c4n[nH]c5ccc(Cl)cc45)nn3)cn1)C2` (centres unmarked) [Example 227] yielded an IC50 of 100 to 1000 nM. As for `O=C(NC1CCOCC1)c1ccc2[nH]nc(-c3cn(-c4ccc(CN5CCOCC5)cc4)nn3)c2c1` [Example 228], the figure is 100 to 1000 nM; as for `CN1C2CCC1CC(n1cc(-n3cc(-c4n[nH]c5cc(F)ccc45)nn3)cn1)C2` (centres unmarked) [Example 229], below 100 nM.

Consider `O=C(NCc1cccc(O)c1)c1ccc2[nH]nc(-c3cn(-c4ccc(CN5CCOCC5)cc4)nn3)c2c1` [Example 230], for which the half-inhibitory concentration (IC50) is below 100 nM. As for `O=C(NC1CCC(O)CC1)c1ccc2[nH]nc(-c3cn(-c4ccc(CN5CCOCC5)cc4)nn3)c2c1` (centres unmarked) [Example 231], the figure is 100 to 1000 nM; as for `CC(C)c1ccc(-n2cc(-c3n[nH]c4ccccc34)nn2)cc1` [Example 232], 1000 to 5000 nM; as for `NC(=O)COc1ccc2c(-c3cn(-c4ccc(C(=O)N5CCOCC5)cc4)nn3)n[nH]c2c1` [Example 233], 100 to 1000 nM. To `COCCOc1ccc2c(-c3cn(-c4ccc(C(=O)N5CCOCC5)cc4)nn3)n[nH]c2c1` [Example 234] belongs 1000 to 5000 nM. As to `O=C(c1ccc(-n2cc(-c3n[nH]c4cc(O)ccc34)nn2)cc1)N1CCOCC1` [Example 235], the IC50 was 100 to 1000 nM. `O=C(c1ccc2[nH]nc(-c3cn(-c4ccc(CN5CCOCC5)cc4)nn3)c2c1)N1CCC(c2ccncc2)CC1` [Example 236] had an IC50 of 100 to 1000 nM. As for `CN(C)C1CCN(C(=O)c2ccc3[nH]nc(-c4cn(-c5ccc(CN6CCOCC6)cc5)nn4)c3c2)CC1` [Example 237], the figure is 100 to 1000 nM; as for `c1ccc2c(-c3cn(-c4ccc(C5CCN(CC6CCCO6)CC5)cc4)nn3)n[nH]c2c1` (centres unmarked) [Example 239], 100 to 1000 nM. As for `O=C(c1ccc(-n2cc(-c3n[nH]c4cc(/C=C/CO)ccc34)nn2)cc1)N1CCOCC1` [Example 240], the figure is below 100 nM; as for `CN(C)S(=O)(=O)c1ccc(-n2cc(-c3n[nH]c4ccccc34)nn2)cc1` [Example 241], 100 to 1000 nM. As for `O=C(c1ccc(-n2cc(-c3n[nH]c4ccc(N5CCCC(F)(F)C5)cc34)nn2)cc1)N1CCOCC1` [Example 242], the IC50 was in the range of 100 to 1000 nM. To `O=S(=O)(c1ccc(-n2cc(-c3n[nH]c4ccccc34)nn2)cc1)N1CCOCC1` [Example 243] belongs 100 to 1000 nM; to `O=C(c1ccc(-n2cc(-c3n[nH]c4cc(NCCO)ccc34)nn2)cc1)N1CCOCC1` [Example 244], 100 to 1000 nM. `CC(CO)Nc1ccc2c(-c3cn(-c4ccc(C(=O)N5CCOCC5)cc4)nn3)n[nH]c2c1` (centres unmarked) [Example 245] had an IC50 of 100 to 1000 nM. As for `c1ccc2c(-c3cn(-c4ccc(N5CCNCC5)cc4)nn3)n[nH]c2c1` [Example 246], the figure is 100 to 1000 nM. To `c1ccc2c(-c3cn(-c4ccc(CN5CCCCC5)cc4)nn3)n[nH]c2c1` [Example 247] belongs 100 to 1000 nM. As for `O=C(c1ccc(-n2cc(-c3n[nH]c4ccc(NCC5CCOCC5)cc34)nn2)cc1)N1CCOCC1` [Example 248], the figure is 100 to 1000 nM; as for `c1ccc2c(-c3cn(-c4ccc(C5CC6CCC(C5)N6C5COC5)cc4)nn3)n[nH]c2c1` (centres unmarked) [Example 249], 100 to 1000 nM. For the compound `O=C(c1ccc(-n2cc(-c3n[nH]c4ccc(N5CCN6CCCC6C5)cc34)nn2)cc1)N1CCOCC1` (centres unmarked) [Example 250], the IC50 lay in the range of 100 to 1000 nM.

`c1ccc2c(-c3cn(-c4ccc(C5CCCNC5)cc4)nn3)n[nH]c2c1` (centres unmarked) [Example 252] yielded an IC50 below 100 nM. As for `CN1[C@@H]2CC[C@H]1C[C@@H](c1ccc(-n3cc(-c4n[nH]c5cc(F)ccc45)nn3)cc1)C2` [Example 253], the figure is below 100 nM; as for `O=C(c1ccc(-n2cc(-c3n[nH]c4ccc(N5CCCC(O)C5)cc34)nn2)cc1)N1CCOCC1` (centres unmarked) [Example 254], 100 to 1000 nM; as for `c1ccc2c(-c3cn(-c4ccc([C@@H]5C[C@H]6CC[C@@H](C5)N6)cc4)nn3)n[nH]c2c1` [Example 255], below 100 nM. As for `c1ccc2c(-c3cn(-c4ccc([C@H]5C[C@H]6CC[C@@H](C5)N6)cc4)nn3)n[nH]c2c1` [Example 256], the figure is below 100 nM; as for `O=C(c1ccc(-n2cc(-c3n[nH]c4ccc(NC5CCCNC5)cc34)nn2)cc1)N1CCOCC1` (centres unmarked) [Example 257], below 100 nM; as for `Nc1ccc(-c2ccc(-n3cc(-c4n[nH]c5ccccc45)nn3)cc2)cn1` [Example 258], 100 to 1000 nM. To `O=S1(=O)CCN(Cc2ccc(-n3cc(-c4n[nH]c5ccccc45)nn3)cc2)CC1` [Example 259] belongs 100 to 1000 nM; to `Cc1cc(-c2ccc(-n3cc(-c4n[nH]c5ccccc45)nn3)cc2)ccn1` [Example 260], 100 to 1000 nM; to `Cn1cc(-c2ccc(-n3cc(-c4n[nH]c5ccccc45)nn3)cc2)cn1` [Example 261], 100 to 1000 nM. In turn, `c1ccc2c(-c3cn(-c4ccc(-c5cnn(CCN6CCOCC6)c5)cc4)nn3)n[nH]c2c1` [Example 262] yielded an IC50 of 100 to 1000 nM. To `FC(F)(F)c1cc(-n2cc(-c3n[nH]c4ccccc34)nn2)ccc1C1CCNCC1` [Example 263] belongs 100 to 1000 nM; to `O=C(c1ccc(-n2cc(-c3n[nH]c4ccc(N5CCOC(CCO)C5)cc34)nn2)cc1)N1CCOCC1` (centres unmarked) [Example 264], 100 to 1000 nM; to `Cc1ccc2c(-c3cn(-c4ccc(C5CCNCC5)cc4)nn3)n[nH]c2c1` [Example 265], below 100 nM. As for `Fc1ccc2c(-c3cn(-c4ccc(C5CCNCC5)cc4)nn3)n[nH]c2c1` [Example 266], the figure is below 100 nM; as for `CN1CCC(c2ccc(-n3cc(-c4n[nH]c5ccccc45)nn3)cc2C(F)(F)F)CC1` [Example 267], 100 to 1000 nM; as for `COc1cc(-n2cc(-c3n[nH]c4ccccc34)nn2)ccc1C1CCNCC1` [Example 268], below 100 nM.

For the compound `c1ccc2c(-c3cn(-c4ccc(C5CCCNCC5)cc4)nn3)n[nH]c2c1` (centres unmarked) [Example 269], the IC50 was below 100 nM. To `Cc1ccc2c(-c3cn(-c4ccc(C5CCN(CCC(F)(F)F)CC5)cc4)nn3)n[nH]c2c1` [Example 270] belongs 1000 to 5000 nM; to `OC(CN1CCC(c2ccc(-n3cc(-c4n[nH]c5cc(F)ccc45)nn3)cc2)CC1)C(F)(F)F` (centres unmarked) [Example 271], 100 to 1000 nM.
